Assay results as given in patent US9701709B2 (REATA PHARMACEUTICALS, INC., priority 2012, dated 2017).
Read-outs that look alike come from different tables or passages of the source.

What was measured:
[1] = system: human NQO1 ARE (Nrf2) in HuH-7 human hepatoma cells; assay: NQO1-ARE luciferase reporter in HuH-7; assay type: cell-based; conditions: for Concentration required to increase transcription from the NQO1 ARE by 2-fold: HuH-7, 18 h
Excerpt: The first luciferase reporter tested was under the control of a single ARE derived from the promoter of the human NQO1 gene, which allows for quantitative assessment of the endogenous activity of the Nrf2 transcription factor in cultured mammalian cells. […] The NQO1-ARE-luciferase reporter plasmid was constructed by inserting the human NQO1-ARE ([NT] ID NO: 31) into the pLuc-MCS vector using HindIII/XhoI cloning sites (GenScript Corp., Piscataway, N.J.). […] Firefly and Renilla luciferase activity was assayed by Dual-Glo Luciferase Assay (cat # E2920, Promega), and the luminescence signal was measured on an L-Max II luminometer (Molecular Devices). Firefly luciferase activity was normalized to the Renilla activity, and fold induction over a vehicle control (DMSO) of normalized Firefly activity was calculated. […] Values represent the average of three independent experiments.

[2] = system: LPS-induced NO (plasma NOx, Griess Reaction); assay: Suppression of NO in vivo after LPS in CD-1 mice; design: species or system mouse; conditions: LPS 5 mg/kg 24 h later
Description: FIG. 51—Dose-dependent suppression of NO in vivo by 63415. CD-1 mice (n=6) were dosed with DMSO or […] by oral gavage. LPS (5 mg/kg) was administered 24 h later. Twenty-four hours after LPS administration, whole blood was collected for NO assay. NO inhibition was determined by Griess Reaction from reduced, de-proteinated plasma.

[3] = Distribution into mouse tissues after PO QD×3; assay type: in vivo; conditions: mice PO QD×3 25 mg/kg, 6 h after last dose, semi-quantitative
Description: Semi-quantitative analysis of drug content was performed.

NQO1 activity = NQO1 activity induction in mouse liver, lung, and kidney after PO QD×3; assay type: in vivo; conditions: mice PO QD×3 25 mg/kg, 6 h after last dose
Description: FIG. 53—NQO1 activity induction in mouse liver, lung, and kidney by 63415. Mice were dosed PO QD×3 with 25 mg/kg. Tissues were collected 6 h after the last dose, and analysis of NQO1 activity was performed.

[4] = system: NF-κB in NIH3T3/NF-κB-luc cell line; assay: NF-κB luciferase reporter in NIH3T3/NF-κB-luc; assay type: cell-based; conditions: Mus musculus
Excerpt: (b) TNF-α-induced activation of an NF-κB luciferase reporter in the mouse NIH3T3 cell line.
(§1) NF-κB is a transcription factor that plays a central role in the regulation of many immune and inflammatory responses. […] The NIH3T3/NF-κB-luc cell line maintains a chromosomal integration of a Firefly luciferase reporter construct regulated by eight copies of the NF-κB response element. The effects of these compounds can be quantified by measuring the value of the NF-κB IC50.

[5] = system: rat GSTA2 ARE (Nrf2) in AREc32 reporter cell line; assay: GSTA2-ARE luciferase reporter in AREc32; conditions: 4-fold GSTA2-ARE induction
[6] = system: TNF-α-induced NF-κB activation in A549/NF-κB-Luc cells; assay: TNF-α-induced NF-κB luciferase reporter in A549/NF-κB-Luc; assay type: cell-based; conditions: Homo sapiens
Excerpt: (b) TNF-α-induced activation of an NF-κB luciferase reporter in the human A549 cell line.
as §1

MRP-1 = MRP-1 (Homo sapiens, UniProt P33527); assay: in vitro; conditions: not told
MRP-1, sequence (P33527 whole entry): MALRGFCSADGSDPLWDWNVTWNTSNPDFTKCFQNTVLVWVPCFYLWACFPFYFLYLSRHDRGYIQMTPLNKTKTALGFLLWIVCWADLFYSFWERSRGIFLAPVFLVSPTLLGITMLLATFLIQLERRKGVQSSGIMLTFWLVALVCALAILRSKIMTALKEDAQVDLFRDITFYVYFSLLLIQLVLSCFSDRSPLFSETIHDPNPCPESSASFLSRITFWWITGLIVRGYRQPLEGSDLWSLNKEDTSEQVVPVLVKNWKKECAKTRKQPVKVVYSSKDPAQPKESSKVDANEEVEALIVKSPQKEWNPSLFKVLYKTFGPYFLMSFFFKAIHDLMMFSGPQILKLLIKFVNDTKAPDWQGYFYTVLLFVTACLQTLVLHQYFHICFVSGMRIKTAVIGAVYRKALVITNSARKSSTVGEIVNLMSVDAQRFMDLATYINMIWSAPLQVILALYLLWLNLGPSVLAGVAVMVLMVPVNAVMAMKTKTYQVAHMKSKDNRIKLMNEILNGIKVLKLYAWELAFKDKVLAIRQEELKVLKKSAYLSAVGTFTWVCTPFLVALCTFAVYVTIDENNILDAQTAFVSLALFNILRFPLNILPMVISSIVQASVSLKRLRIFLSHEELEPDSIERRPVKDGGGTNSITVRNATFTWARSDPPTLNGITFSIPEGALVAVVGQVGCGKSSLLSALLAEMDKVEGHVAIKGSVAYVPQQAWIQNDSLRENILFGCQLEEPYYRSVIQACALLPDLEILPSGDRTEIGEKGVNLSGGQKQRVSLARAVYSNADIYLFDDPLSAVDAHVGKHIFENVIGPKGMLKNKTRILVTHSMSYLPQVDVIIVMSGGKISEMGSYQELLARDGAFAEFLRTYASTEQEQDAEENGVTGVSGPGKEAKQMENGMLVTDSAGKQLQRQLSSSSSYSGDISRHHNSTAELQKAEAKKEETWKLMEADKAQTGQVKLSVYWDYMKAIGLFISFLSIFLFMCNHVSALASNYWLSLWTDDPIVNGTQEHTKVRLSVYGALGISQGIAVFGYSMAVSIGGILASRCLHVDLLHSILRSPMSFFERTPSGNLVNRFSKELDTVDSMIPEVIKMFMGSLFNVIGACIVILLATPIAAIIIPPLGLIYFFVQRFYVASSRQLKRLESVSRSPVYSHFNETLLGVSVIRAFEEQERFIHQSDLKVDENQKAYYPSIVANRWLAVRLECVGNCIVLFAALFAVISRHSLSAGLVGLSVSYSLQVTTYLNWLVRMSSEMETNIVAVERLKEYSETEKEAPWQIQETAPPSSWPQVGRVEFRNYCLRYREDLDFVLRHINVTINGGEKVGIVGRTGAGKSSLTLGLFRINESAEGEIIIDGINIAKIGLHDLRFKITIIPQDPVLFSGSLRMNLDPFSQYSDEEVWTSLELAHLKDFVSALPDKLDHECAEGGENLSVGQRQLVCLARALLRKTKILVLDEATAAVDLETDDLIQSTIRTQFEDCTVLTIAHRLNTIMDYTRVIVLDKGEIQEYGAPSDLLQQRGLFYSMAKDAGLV

[7] = Dynamic vapor sorption (hygroscopicity); assay type: physicochemical
Description: Projekt Messtechnik Sorptions Prüfsystem SPS 11-100n or Surface Measurement Systems DVS-1. The sample was placed on an aluminum or platinum holder on top of a microbalance and allowed to equilibrate for 2 h at 50% r.h. before starting the pre-defined humidity program: • (1) 50→0% r.h. (5%/h); 5 h at 0% r.h. • (2) 0→95% r.h. (5%/h); 5 h at 95% r.h. • (3) 95→50% r.h. (5%/h); 2 h at 50% r.h.

[8] = Polymorph screen: crystallization and drying experiments (FT-Raman, PXRD, TG-FTIR, DSC); assay type: physicochemical
Description: A preformulation and polymorphism study was performed for compound 63415. […] A total of 30 crystallization experiments, including phase equilibrations, drying experiments and other techniques, were carried out. All obtained solids were characterized by FT-Raman spectroscopy. All new forms were characterized by PXRD and TG-FTIR, and optionally by DSC and DVS.
All obtained materials were characterized by FT-Raman spectroscopy; selected samples were also characterized by PXRD.
Suspension equilibration experiments were carried out in one solvent and eleven solvent mixtures (Table 13). Suspensions of ˜100 mg of PP415-P1 in 0.2-2.0 mL of the selected solvents were prepared and shaken for 4-15 days at 22-24° C. The solids were recovered and characterized by FT-Raman spectroscopy; most were characterized also by PXRD.
Hot solutions of PP415-P1 were prepared in one solvent and four solvent mixtures (Table 14). […] In two cases (-P22, -P23) no solid precipitated, even after storage at 4-5° C. for two days. Here, the solvent was evaporated under N2 flow at r.t. The solids were recovered and characterized by FT-Raman spectroscopy and for those with spectra different from the amorphous starting material, FT-Raman class 1, also by PXRD.
Clear solutions of PP415-P1 were prepared in three solvent mixtures (Table 15). The solvents were then slowly evaporated at r.t. under ambient conditions. However, in two of the three experiments (-P15 and -P17) white solid precipitated before evaporation began. The obtained solids were examined by FT-Raman spectroscopy and PXRD.
At least one sample of each class was dried under vacuum with the aim to desolvate the solvates and to obtain non-solvated crystalline forms of 63415 (Table 16). The dried materials were characterized further by FT-Raman, PXRD, and TG-FTIR.
Bruker RFS100 with OPUS 6.5 software; Nd:YAG 1064-nm excitation, Ge detector, 3500-100 cm^−1 range; typical measurement conditions: 100-300 mW nominal laser power, 64-128 scans, 2 cm^−1 resolution.
Stoe Stadi P; Mythen1K Detector; Cu—Kα radiation; standard measurement conditions: transmission; 40 kV and 40 mA tube power; curved Ge monochromator; 0.02°2θ step size, 12 s or 60 s step time, 1.5-50.5°2θ or 1.0-55°2θ scanning range; detector mode: step scan; 1°2θ or 6°2θ detector step; standard sample preparation: 10 to 20 mg sample was placed between two acetate foils; sample holder: Stoe transmission sample holder; the sample was rotated during the measurement.
Netzsch Thermo-Microbalance TG 209 with Bruker FT-IR Spectrometer Vector 22; aluminum crucible (with microhole), N2 atmosphere, 10 K/min heating rate, 25-250° C. or 25-350° C. range.
Perkin Elmer DSC 7; gold crucibles (closed or with microhole), sample filled in an N2 environment, 10 K/min heating rate, −50 to 250° C. or 350° C. range, at times quench cooling (at −200 K/min) to −50° C. between scans.

[9] = not viability normalized, read-out: NIH3T3/NF-κB IC50
[10] = viability normalized, read-out: NIH3T3/NF-κB IC50, normalized for viability
[11] = not viability normalized, read-out: NF-κB IC50, human A549 cell line (further experimentation)
[12] = read-out: NF-κB IC50, human A549 cell line, viability normalized

Row | SMILES | IC50 [4, 9] | IC50 [4, 10] | Concentration required to increase transcription from the NQO1 ARE by 2-fold [1] | Fold increase in amount of compound needed compared to RTA 402 for the same activity [5] | IC50 [6, 11] | IC50 [6, 12] | efflux ratio (MRP-1) | also measured
1 | CC1(C)CC[C@]2(CO)CC[C@]3(C)[C@H](C(=O)C=C4[C@@]5(C)C=C(C#N)C(=O)C(C)(C)[C@@H]5CC[C@]43C)[C@@H]2C1 [Compound 63355] |  |  |  |  |  |  |  | NQO1-ARE (fold at 62.5 nM in HuH7) ([1]; 62.5 nM): 6.5 ± 0.9 fold
2 | CCNC(=O)[C@]12CCC(C)(C)C[C@H]1[C@H]1C(=O)C=C3[C@@]4(C)C=C(C#N)C(=O)C(C)(C)[C@@H]4CC[C@@]3(C)[C@]1(C)CC2 [RTA 405, reference compound] |  |  |  |  |  |  |  | NOx Levels (% vs LPS Controls) ([2]; 13 mg/kg oral gavage): 44%; NOx Levels (% vs LPS Controls) ([2]; 25 mg/kg oral gavage): 26%; NOx Levels (% vs LPS Controls) ([2]; 50 mg/kg oral gavage): 18%; concentration at 6 h ([3]; brain, read-out: Drug content, Brain): 93 nM; concentration at 6 h ([3]; kidney, read-out: Drug content, Kidney): 2360 nM; concentration at 6 h ([3]; liver, read-out: Drug content, Liver): 1140 nM; concentration at 6 h ([3]; lung, read-out: Drug content, Lung): 1630 nM; concentration at 6 h ([3]; plasma, read-out: Drug content, Plasma): 130 nM; concentration at 6 h ([3]; whole blood, read-out: Drug content, Whole Blood): 1160 nM; NQO1 activity induction, Kidney (NQO1 activity): 8.25; NQO1 activity induction, Liver (NQO1 activity): 1.93; NQO1 activity induction, Lung (NQO1 activity): 1.48
3 | CC1(C)CC[C@]2(NC(=O)CC(F)(F)F)CC[C@]3(C)[C@H](C(=O)C=C4[C@@]5(C)C=C(C#N)C(=O)C(C)(C)[C@@H]5CC[C@]43C)[C@@H]2C1 [Compound 63179] | 200 nM | 600 nM | 29.1 nM | 6.05 fold | 1400 nM | 1500 nM | 56.5 | 
4 | CC1(C)CC[C@]2(NC(=O)C(C)(F)F)CC[C@]3(C)[C@H](C(=O)C=C4[C@@]5(C)C=C(C#N)C(=O)C(C)(C)[C@@H]5CC[C@]43C)[C@@H]2C1 [desolvated class 4] |  |  |  |  |  |  |  | DVS: hygroscopicity class [7]: DVS: slightly hygroscopic; Δm = (mass increase <2% but ≧0.2%); DVS: total mass gain from 0% r.h. to 95% r.h. ([7]; 0% r.h. to 95% r.h.): mass gain of 2.1 wt.-% from 0%; DVS: Δm (50%→85% r.h.) ([7]; 50%→85% r.h., listed as PP415-P37): +0.7% (50%→85% r.h.); total; post-DVS Raman and/or PXRD: solid form ([7]; after DVS, listed as PP415-P37): to class 4; Hygroscopicity classification (DVS) ([7]; mass gain at 85% r.h.): slightly hygroscopic (mass increase <2% but ≧0.2%); DSC: no decomposition up to [8]: no decomposition up to 270 °C; TG-FTIR: mass loss (solvent) ([8]; first or main loss, solvent and temperature range per sample as printed): TG-FTIR: loss of ~0.9 wt.-%; TG-FTIR: decomposition at T ([8]; listed as PP415-P37): decomposition at T > 280 °C
5 | CCC(=O)N[C@]12CCC(C)(C)C[C@H]1[C@H]1C(=O)C=C3[C@@]4(C)C=C(C#N)C(=O)C(C)(C)[C@@H]4CC[C@@]3(C)[C@]1(C)CC2 [Compound 63189] | 1100 nM | 1000 nM | 14.9 nM | 3.47 fold | 1100 nM | 1200 nM | 57.1 | 
6 | CC(=O)N[C@]12CCC(C)(C)C[C@H]1[C@H]1C(=O)C=C3[C@@]4(C)C=C(C#N)C(=O)C(C)(C)[C@@H]4CC[C@@]3(C)[C@]1(C)CC2 [Compound 63170] | 1100 nM | 1100 nM | 25.2 nM | 3.40 fold | 1000 nM | 1100 nM | 10 | 
7 | CC1(C)CC[C@]2(NC(=O)C(F)(F)F)CC[C@]3(C)[C@H](C(=O)C=C4[C@@]5(C)C=C(C#N)C(=O)C(C)(C)[C@@H]5CC[C@]43C)[C@@H]2C1 [Compound 63171] | 1700 nM | 1800 nM |  | 2.65 fold | 2000 nM | 2100 nM | 11.2 | 
